Reference: patent publication EP2402357B1, “Analogs of 2',3'-dideoxy-3'-fluorothymidine 5'-monophosphate (FLTMP) for use in the treatment of infections caused by human HIV-1 strains” (priority 2010, dated 2012)
Where a name gives a salt, the structure may show the parent alone.

Columns and labels:
Test in all cases: Antiviral activity in deCIPhR cellular system (replicative phenotyping, β-galactosidase indicator cell line)
Assay type in all cases: cell-based
Settings in all cases: Human immunodeficiency virus 1
HIV-1 mutant M184V = system: HIV-1 mutant M184V
Excerpt: (§1) Fully infectious virus HIV-1 was produced from cloned proviral DNA reference coding either for wild-type HIV-1 or from drug-resistant virus following transfection of proviral DNA into recipient mammalian cells. Subsequent to viral protein expression and particle formation, culture supernatant was harvested and used to infect an indicator cell line. This latter cell line expresses all necessary receptors and co-receptors for HIV infection as well as the bacterial gene LacZ coding for β-galactosidase under the control of the HIV-1 long terminal repeat. In this system, amount of β-galactosidase is directly proportional to the extent of viral replication. Activity of β-galactosidase is assayed in presence of a colorless substrate which upon enzymatic conversion yields a yellow product absorbing at 405 nm. Next, variation in colorimetric readout in presence of test compounds was translated in percent viral inhibition following normalization according to absorbance values of positive (presence of anti-HIV drug) and negative (untreated) control wells included in each 96 well-plate. For determining effective concentration 50 % (EC50), test compounds were assayed across a range of concentrations. Percent inhibition data in function of drug concentration were processed by a statistical curve fitting software yielding a modeled curve from which EC50 was extrapolated.

HIV-1 mutant M4 = system: HIV-1 mutant M4
Excerpt: as §1

HIV-1 mutant K103N = system: HIV-1 mutant K103N
Excerpt: as §1

HIV-1 mutant K65R = system: HIV-1 mutant K65R
Excerpt: as §1

HIV-1 mutant GQ (MDR) = system: HIV-1 mutant GQ (MDR)
Excerpt: as §1

HIV-1 wild type pNL4-3 = system: HIV-1 wild type pNL4-3
Excerpt: as §1

With `Cc1cn([C@H]2C[C@H](F)[C@@H](COP(=O)(O)O)O2)c(=O)[nH]c1=S` [Example 4-SFLTMP, 1-(2-deoxy-3-fiuoro-β-D-ribofuranosyl)-4-thiothymine 5'-monophosphate disodium salt] the EC50 (HIV-1 mutant M184V) was 43 nM, the EC90 (HIV-1 mutant M184V) was 425 nM and the EC50 (HIV-1 mutant M4) was 31 nM. The EC90 (HIV-1 mutant M4) was 381 nM, the EC50 (HIV-1 mutant K103N) was 11 nM and the EC90 (HIV-1 mutant K103N) was 50 nM. For the same compound, the EC50 (HIV-1 mutant K65R) was 96 nM, the EC90 (HIV-1 mutant K65R) was 338 nM and the EC50 (HIV-1 mutant GQ (MDR)) was 48 nM. The EC90 (HIV-1 mutant GQ (MDR)) was 1800 nM, the EC50 (HIV-1 wild type pNL4-3) was 24 nM and the EC90 (HIV-1 wild type pNL4-3) was 166 nM.
With `Cc1cn([C@H]2C[C@H](F)[C@@H](COP(=O)(O)O)O2)c(=S)[nH]c1=O` [Example 2-SFLTMP, 1-(2-deoxy-3-fluoro-β-D-ribofuranosyl)-2-thiothymine 5'-monophosphate disodium salt] the EC50 (HIV-1 mutant M184V) was 144 nM, the EC90 (HIV-1 mutant M184V) was 3260 nM and the EC50 (HIV-1 mutant M4) was 392 nM. It also gave an EC90 (HIV-1 mutant M4) of 3680 nM, an EC50 (HIV-1 mutant K103N) of 114 nM and an EC90 (HIV-1 mutant K103N) of 978 nM. The EC50 (HIV-1 mutant K65R) was 504 nM, the EC90 (HIV-1 mutant K65R) was 4340 nM and the EC50 (HIV-1 mutant GQ (MDR)) was 2850 nM. The EC90 (HIV-1 mutant GQ (MDR)) was 4530 nM, the EC50 (HIV-1 wild type pNL4-3) was 224 nM and the EC90 (HIV-1 wild type pNL4-3) was 2580 nM.
In the case of `Cc1cn([C@H]2C[C@H](F)[C@@H](CO)O2)c(=O)[nH]c1=O` [FLT, 2',3'-Dideoxy-3'-fluorothymidine], the EC50 (HIV-1 mutant M184V) is reported as 27 nM, the EC90 (HIV-1 mutant M184V) is reported as 119 nM and the EC50 (HIV-1 mutant M4) is reported as 16 nM. The EC90 (HIV-1 mutant M4) was 118 nM, the EC50 (HIV-1 mutant K103N) was 18 nM and the EC90 (HIV-1 mutant K103N) was 71 nM. The EC50 (HIV-1 mutant K65R) was 32 nM, the EC90 (HIV-1 mutant K65R) was 96 nM and the EC50 (HIV-1 mutant GQ (MDR)) was 131 nM. It also gave an EC90 (HIV-1 mutant GQ (MDR)) of 1300 nM, an EC50 (HIV-1 wild type pNL4-3) of 21 nM and an EC90 (HIV-1 wild type pNL4-3) of 210 nM.
